Our source for the binary diffusion coefficient values is the NIST ThermoML archive (doi:10.1021/acs.jced.8b00110).

A short description of the data set: xn = mol fraction of the nth substance listed. To be noted: Liquid, phase equilibration, x1 = 0.05.

Consider `FC(F)(F)/C=C/Cl` [(E)-1-chloro-3,3,3-trifluoroprop-1-ene] + CCCCCCn1cc[n+](C)c1.O=S(=O)([O-])C(F)(F)F, for which the binary diffusion coefficient was 5.2e-10 m2/s (303.2 K); 7.8e-10 m2/s (313.1 K); 1.04e-09 m2/s (323.2 K); 1.69e-09 m2/s (333.2 K); 2.62e-09 m2/s (343.2 K).

Turning to `FC(F)(F)/C=C/Cl` [(E)-1-chloro-3,3,3-trifluoroprop-1-ene] + CCCCCC[n+]1ccn(C)c1.O=S(=O)([N-]S(=O)(=O)C(F)(F)F)C(F)(F)F, the binary diffusion coefficient is, setting by setting: (303.2 K) 2.9e-10 m2/s; (313.1 K) 3.8e-10 m2/s; (323.2 K) 4.1e-10 m2/s; (333.2 K) 5.7e-10 m2/s; (343.2 K) 8.3e-10 m2/s.

Regarding `FC(F)(F)/C=C/Cl` [(E)-1-chloro-3,3,3-trifluoroprop-1-ene] + CCCCCCn1cc[n+](C)c1.F[B-](F)(F)F, the binary diffusion coefficient reads like this: (303.2 K) 3.3e-10 m2/s; (313.1 K) 4.6e-10 m2/s; (323.2 K) 6.1e-10 m2/s; (333.2 K) 9.6e-10 m2/s; (343.2 K) 1.68e-09 m2/s.
